Data from US9249104B2, “Pyrazole indanyl carboxamides” (BAYER CROPSCIENCE AG, priority 2012, dated 2016).

Assays:
Sphaerotheca fuliginea = assay: In vivo preventive test on Sphaerotheca fuliginea (powdery mildew on cucurbits); conditions: graded 12 days after contamination
Description: Gherkin plants (“Vert petit de Paris” variety), sown in starter cups on a 50/50 peat soil-pozzolana substrate and grown at 24° C., are treated at the Z11 cotyledon stage by spraying with the active ingredient prepared as described above. Plants, used as controls, are treated with the mixture of acetone/tween/DMSO/water not containing the active material. After 24 hours, the plants are contaminated by spraying the cotyledons with an aqueous suspension of Sphaerotheca fuliginea spores (100 000 spores per ml). The spores are collected from infected plants. […] Grading (% of efficacy) is carried out 12 days after the contamination, in comparison with the control plants.

Puccinia recondita = assay: In vivo preventive test on Puccinia recondita (brown rust on wheat); conditions: graded 12 days after contamination
Description: Wheat plants (“Scipion” variety), sown in starter cups on a 50/50 peat soil-pozzolana substrate and grown at 22° C., are treated at the 1-leaf stage (10 cm height) by spraying with the active ingredient prepared as described above. Plants, used as controls, are treated with the mixture of acetone/tween/DMSO/water not containing the active material. After 24 hours, the plants are contaminated by spraying the leaves with an aqueous suspension of Puccinia recondita spores (100 000 spores per ml). The spores are collected from an infected plant and are suspended in water to containing 2.5 ml/l of Tween 80 at 10%. […] Grading (% of efficacy) is carried out 12 days after the contamination, in comparison with the control plants.

Septoria tritici = assay: In vivo preventive test on Septoria tritici (leaf spot on wheat); conditions: 500 ppm, wheat plants sprayed 24 h before contamination, graded 24 days after contamination
Description: Wheat plants (“Scipion” variety), sown in starter cups on a 50/50 peat soil-pozzolana substrate and grown at 22° C., are treated at the 1-leaf stage (10 cm height) by spraying with the active ingredient prepared as described above. Plants, used as controls, are treated with the mixture of acetone/tween/DMSO/water not containing the active material. After 24 hours, the plants are contaminated by spraying the leaves with an aqueous suspension of cryopreserved Septoria tritici spores (500 000 spores per ml). The contaminated wheat plants are incubated for 72 hours at 18° C. and at 100% relative humidity, and then for 21 days at 90% relative humidity. Grading (% of efficacy) is carried out 24 days after the contamination, in comparison with the control plants.

Alternaria brassicae = assay: In vivo preventive test on Alternaria brassicae (leaf spot on radish); conditions: 500 ppm, radish plants sprayed 24 h before contamination, graded 6 days after contamination
Description: Radish plants (“Pernod Clair” variety), sown in starter cups on a 50/50 peat soil-pozzolana substrate and grown at 17° C., are treated at the cotyledon stage by spraying with the active ingredient prepared as described above. Plants, used as controls, are treated with the mixture of acetone/tween/DMSO/water not containing the active material. After 24 hours, the plants are contaminated by spraying the cotyledons with an aqueous suspension of Alternaria brassicae spores (50 000 spores per ml). The spores are collected from a 15-day-old culture. The contaminated radish plants are incubated at 20° C. and at 100% relative humidity. Grading (% of efficacy) is carried out 6 days after the contamination, in comparison with the control plants.

Uromyces appendiculatus = assay: In vivo preventive test on Uromyces appendiculatus (bean rust); conditions: bean plants
Description: Bean plants (“Saxa” variety), sown in starter cups on a 50/50 peat soil-pozzolana substrate and grown at 24° C., are treated at the 2-leaf stage (9 cm height) by spraying with the active ingredient prepared as described above. Plants, used as controls, are treated with the mixture of acetone/tween/DMSO/water not containing the active material. After 24 hours, the plants are contaminated by spraying the leaves with an aqueous suspension of Uromyces appendiculatus spores (150 000 spores per ml). The spores are collected from infected plants and are suspended in water containing 2.5 ml/1 of Tween 80 at 10%. […] Grading (% of efficacy) is carried out 11 days after the contamination, in comparison with the control plants.

Pyrenophora teres = assay: In vivo preventive test on Pyrenophora teres (net blotch on barley); conditions: graded 14 days after contamination
Description: Barley plants (“Plaisant” variety), sown in starter cups on a 50/50 peat soil-pozzolana substrate and grown at 22° C., are treated at the 1-leaf stage (10 cm height) by spraying with the active ingredient prepared as described above. Plants, used as controls, are treated with the mixture of acetone/tween/DMSO/water not containing the active material. After 24 hours, the plants are contaminated by spraying the leaves with an aqueous suspension of Pyrenophora teres spores (12 000 spores per ml). The spores are collected from a 12-day-old culture. […] Grading (% of efficacy) is carried out 14 days after the contamination, in comparison with the control plants.

[1] = logP by HPLC on reversed phase columns (EEC directive 79/831 Annex V.A8); format: physicochemical; conditions: for logP: method [a]: LC-MS at pH 2.7, 0.1% formic acid in water / acetonitrile, compounds of formula (I), Table 1; for chromatographic logP: pH 2.7
[2] = 500 ppm, gherkin plants sprayed 24 h before contamination
[3] = 500 ppm, wheat plants sprayed 24 h before contamination
[4] = preventive, dose of 500 ppm, grading 11 days after contamination
[5] = 500 ppm, barley plants sprayed 24 h before contamination
[6] = 100 ppm, graded 11 days after contamination

Structure (SMILES) | Eff. % (Sphaerotheca fuliginea; [2]) [%] | Eff. % (Puccinia recondita; [3]) [%] | Eff. % (Septoria tritici) [%] | Eff. % (Alternaria brassicae) [%] | Eff. % (Uromyces appendiculatus; [4]) [%] | Eff. % (Pyrenophora teres; [5]) [%] | logP [1] | Eff. % (Uromyces appendiculatus; [6]) [%] | Eff. % (Sphaerotheca fuliginea; 100 ppm, gherkin plants) [%] | Eff. % (Puccinia recondita; 100 ppm, wheat plants) [%] | Eff. % (Pyrenophora teres; 100 ppm, barley plants) [%] | chromatographic logP [1]
CON=C1c2cccc(NC(=O)c3cn(C)nc3C(F)(F)F)c2CC1(C)C (mixture of isomers) [Example 30] | 98 | 86 | 100 | – | – | – | – | – | – | – | – | –
CON=C1c2cccc(NC(=O)c3cn(C)nc3C(F)F)c2CC1(C)C (mixture of isomers) [Example 32] | 98 | 93 | 100 | 75 | – | – | – | – | – | – | – | –
CC(C)C1Cc2c(NC(=O)c3c(C(F)(F)F)nn(C)c3F)cccc2C1(C)C (racemic) [Example 66] | 98 | 98 | – | 79 | 100 | 83 | 4.82[a] | – | – | – | – | –
CCC1Cc2c(NC(=O)c3c(C)nn(C)c3Cl)cccc2C1(C)C (racemic) [Example 68] | – | 100 | – | 75 | 100 | – | 4.32[a] | – | – | – | – | –
Cc1nn(C)c(Cl)c1C(=O)Nc1cccc2c1CC(C(C)C)C2(C)C (racemic) [Example 69] | 72 | 88 | – | – | 100 | 75 | 4.76[a] | – | – | – | – | –
CCC1(CC)Cc2c(NC(=O)c3cn(C)nc3C(F)(F)F)cccc2C1C (racemic) [Example 74] | 98 | 98 | 94 | – | 100 | – | 4.46[a] | – | – | – | – | –
CC1Cc2c(NC(=O)c3cn(C)nc3I)cccc2C1(C)C (racemic) [Example 75] | 78 | 98 | 79 | – | 100 | – | 3.64[a] | – | – | – | – | –
CCC1(CC)Cc2c(NC(=O)c3cn(C)nc3C(F)F)cccc2C1C (racemic) [Example 79] | 100 | 98 | 98 | 95 | 100 | – | 4.27[a] | – | – | – | – | –
CC(C)C1Cc2c(NC(=S)c3cn(C)nc3C(F)(F)F)cccc2C1(C)C (racemic) [Example 86] | – | – | – | – | – | – | 4.78[a] | 100 | 100 | 100 | 100 | –
Cc1nn(C)c(C(F)F)c1C(=O)Nc1cccc2c1CC(C)C2(C)C (racemic) [Example 87] | – | 100 | 92 | – | 100 | – | 3.96[a] | – | – | – | – | –
CC(C)CC1Cc2cccc(NC(=O)c3cn(C)nc3C(F)F)c2C1 (centres unmarked) [Example 4] | 70 | 93 | 85 | 93 | 100 | – | – | – | – | – | – | –
CC1c2cccc(NC(=O)c3cn(C)nc3C(F)F)c2CC12CCCC2 (centres unmarked) [Example 10, 3-(difluoromethyl)-1-methyl-N-(1′-methyl-1′,3′-dihydrospiro[cyclopentane-1,2′-inden]-4′-yl)-1H-pyrazole-4-carboxamide] | 100 | 97 | 100 | 93 | 100 | 83 | – | – | – | – | – | 3.96
CC1c2cccc(NC(=O)c3cn(C)nc3C(F)(F)F)c2CC1(C)C (centres unmarked) [Example 15] | 100 | 96 | – | 86 | 100 | – | 3.74[a] | – | – | – | – | –
CCc1c(C(=O)Nc2cccc3c2CC(C)C3(C)C)cnn1C (centres unmarked) [Example 20] | – | – | 97 | 97 | – | 100 | 3.37[a] | – | – | – | – | –
Cn1cc(C(=O)Nc2cccc3c2CC2CCCCC32)c(C(F)F)n1 (centres unmarked) [Example 24] | – | 89 | – | – | 100 | 86 | 3.81[a] | – | – | – | – | –
Cn1cc(C(=O)Nc2cccc3c2CC2(CCCC2)C3)c(C(F)F)n1 [Example 25] | 95 | 94 | – | 71 | 100 | 71 | 3.74[a] | – | – | – | – | –
[2H]C1(C)Cc2cccc(NC(=O)c3cn(C)nc3C(F)F)c2C1 (centres unmarked) [Example 26] | 89 | 100 | 100 | – | 100 | – | 2.94[a] | – | – | – | – | –
CC1c2c(NC(=O)c3cn(C)nc3C(F)(F)F)cccc2C(C)(C)C1C (centres unmarked) [Example 31] | 72 | 94 | 79 | 80 | 100 | – | 3.76[a] | – | – | – | – | –
CCC1Cc2c(NC(=O)c3cn(C)nc3C(F)F)cccc2C1(C)C (centres unmarked) [Example 36] | 100 | 98 | 86 | – | 100 | 75 | 3.96[a] | – | – | – | – | –
CCC1Cc2c(NC(=O)c3c(C)nn(C)c3C)cccc2C1(C)C (centres unmarked) [Example 38] | – | 100 | – | 80 | 100 | – | 3.55[a] | – | – | – | – | –
CC(C)C1Cc2c(NC(=O)c3cn(C)nc3C(F)F)cccc2C1(C)C (centres unmarked) [Example 39] | 100 | 98 | 71 | 98 | 100 | – | 4.27[a] | – | – | – | – | –
CC(C)C1Cc2c(NC(=O)c3cn(C)nc3C(F)(F)F)cccc2C1(C)C (centres unmarked) [Example 40] | 100 | 98 | 93 | 89 | 100 | – | 4.46[a] | – | – | – | – | –
Cc1nn(C)c(F)c1C(=O)Nc1cccc2c1CC(C(C)C)C2(C)C (centres unmarked) [Example 41] | 100 | 100 | 71 | 78 | 100 | – | 4.34[a] | – | – | – | – | –
Cn1cc(C(=O)Nc2cccc3c2CC(C)(C)C3)c(C(F)F)n1 [Example 45] | 100 | 98 | 97 | – | 100 | – | 3.21[a] | – | – | – | – | –
CCC1Cc2c(NC(=O)c3c(C(F)(F)F)nn(C)c3F)cccc2C1(C)C (centres unmarked) [Example 50] | 98 | 98 | – | 88 | 100 | – | 4.51[a] | – | – | – | – | –
CC1c2cccc(NC(=O)c3cn(C)nc3C(F)(F)F)c2CC1(C)C (centres unmarked) [Example 52] | 98 | 100 | 94 | – | 100 | – | 3.72[a] | – | – | – | – | –
CC(C)C1Cc2c(NC(=S)c3cn(C)nc3C(F)F)cccc2C1(C)C (centres unmarked) [Example 77, 3-(difluoromethyl)-N-(2-isopropyl-1,1-dimethyl-2,3-dihydro-1H-inden-4-yl)-1-methyl-1H-pyrazole-4-carbothioamide] | – | – | – | – | – | – | – | 100 | 100 | 100 | 100 | 4.54
